Measurements taken from the supplement of paper PMC11061612.

Experiments:
[1] = system: LOUCY (T-Lymphoblastic Leukemia); assay: Bliss excess, mean over the matrix (fraction); higher = more synergy
Procedure, shortened: (§1)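 After 24 hours at 37°C and 5% CO2 in 1536-well plates, cells in DMEM/F12 or RPMI plus 10% FBS received two-drug dose matrices for 72 hours. Viability came from CellTiter-Glo 2.0 luminescence and was scaled as inhibition, anchored at 0 by vehicle wells and at 1 by blank wells. Combination Emax is taken as the second-highest inhibition in the matrix, and Bliss excess as the observed combination effect less EA + EB − EA·EB, with EA and EB the single-agent effects.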

[2] = system: PANC-02-03 (Pancreatic Carcinoma); assay: as above
Procedure, shortened: as §1

CHL-1 (Melanoma) [3] = assay: as above
Procedure, shortened: as §1

[4] = system: CML-T1 (Chronic Myelogenous Leukemia); assay: as above
Procedure, shortened: as §1

[5] = system: OV-90 (Ovarian Carcinoma); assay: as above
Procedure, shortened: as §1

[6] = system: NCI-H810 (Non-Small Cell Lung Carcinoma); assay: as above
Procedure, shortened: as §1

[7] = system: NKM-1 (Acute Myeloid Leukemia); assay: as above
Procedure, shortened: as §1

[8] = system: COLO-684 (Endometrial Carcinoma); assay: as above
Procedure, shortened: as §1

[9] = system: SK-MM-2 (Plasma Cell Myeloma); assay: as above
Procedure, shortened: as §1

[10] = system: LAMA-84 (Chronic Myelogenous Leukemia); assay: as above
Procedure, shortened: as §1

[11] = system: RMG-I (Ovarian Carcinoma); assay: as above
Procedure, shortened: as §1

[12] = system: PC-14 (Lung Adenocarcinoma); assay: as above
Procedure, shortened: as §1

[13] = system: HCC-44 (Lung Adenocarcinoma); assay: as above
Procedure, shortened: as §1

[14] = system: EB-3 (Burkitt's Lymphoma); assay: as above
Procedure, shortened: as §1

[15] = system: SW684 (Other Solid Carcinomas); assay: as above
Procedure, shortened: as §1

[16] = system: KYSE-70 (Esophageal Squamous Cell Carcinoma); assay: as above
Procedure, shortened: as §1

[17] = system: Becker (Low Grade Glioma); assay: as above
Procedure, shortened: as §1

[18] = system: FLO-1 (Esophageal Adenocarcinoma); assay: as above
Procedure, shortened: as §1

KYM-1 (Rhabdomyosarcoma) [19] = assay: as above
Procedure, shortened: as §1

[20] = system: NCI-H1755 (Lung Adenocarcinoma); assay: as above
Procedure, shortened: as §1

[21] = system: LOUCY (T-Lymphoblastic Leukemia); assay: combination Emax (second highest fraction inhibited in the dose matrix, 72 h); higher = more inhibition; extreme values may be limits of the assay
Procedure, shortened: as §1

[22] = system: PANC-02-03 (Pancreatic Carcinoma); assay: as above
Procedure, shortened: as §1

CHL-1 (Melanoma) [23] = assay: as above
Procedure, shortened: as §1

[24] = system: CML-T1 (Chronic Myelogenous Leukemia); assay: as above
Procedure, shortened: as §1

[25] = system: OV-90 (Ovarian Carcinoma); assay: as above
Procedure, shortened: as §1

[26] = system: NCI-H810 (Non-Small Cell Lung Carcinoma); assay: as above
Procedure, shortened: as §1

[27] = system: NKM-1 (Acute Myeloid Leukemia); assay: as above
Procedure, shortened: as §1

[28] = system: COLO-684 (Endometrial Carcinoma); assay: as above
Procedure, shortened: as §1

[29] = system: SK-MM-2 (Plasma Cell Myeloma); assay: as above
Procedure, shortened: as §1

[30] = system: LAMA-84 (Chronic Myelogenous Leukemia); assay: as above
Procedure, shortened: as §1

[31] = system: RMG-I (Ovarian Carcinoma); assay: as above
Procedure, shortened: as §1

[32] = system: PC-14 (Lung Adenocarcinoma); assay: as above
Procedure, shortened: as §1

[33] = system: HCC-44 (Lung Adenocarcinoma); assay: as above
Procedure, shortened: as §1

[34] = system: EB-3 (Burkitt's Lymphoma); assay: as above
Procedure, shortened: as §1

[35] = system: SW684 (Other Solid Carcinomas); assay: as above
Procedure, shortened: as §1

[36] = system: KYSE-70 (Esophageal Squamous Cell Carcinoma); assay: as above
Procedure, shortened: as §1

[37] = system: Becker (Low Grade Glioma); assay: as above
Procedure, shortened: as §1

[38] = system: FLO-1 (Esophageal Adenocarcinoma); assay: as above
Procedure, shortened: as §1

KYM-1 (Rhabdomyosarcoma) [39] = assay: as above
Procedure, shortened: as §1

[40] = system: NCI-H1755 (Lung Adenocarcinoma); assay: as above
Procedure, shortened: as §1
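For Bliss excess, mean over the matrix in this document: after 72 h of two-drug dosing.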

In the case of `C[C@@H](Nc1cc(F)cc(F)c1)c1cc(C(=O)N(C)C)cc2c(=O)cc(N3CCOCC3)oc12` [AZD8186] + CC(=O)c1c(C)c2cnc(Nc3ccc(N4CCNCC4)cn3)nc2n(C2CCCC2)c1=O [Palbociclib] (first compound max 10 µM, 7x7, partner max 10 µM), the Bliss excess [1] is reported as 0.187, the Bliss excess [2] is reported as -0.0157 and the Bliss excess (CHL-1 (Melanoma) [3]) is reported as 0.0104. For the same compound, the Bliss excess [4] was -0.0045, the Bliss excess [5] was -0.0541 and the Bliss excess [6] was -0.0224. For the same compound, the Bliss excess [7] was -0.0435, the Bliss excess [8] was 0.0174 and the Bliss excess [9] was 0.0299. The Bliss excess [10] was 0.083, the Bliss excess [11] was 0.0104 and the Bliss excess [12] was 0.0852. For the same compound, the Bliss excess [13] was 0.0091, the Bliss excess [14] was 0.0129 and the Bliss excess [15] was -0.0005. It also gave a Bliss excess [16] of -0.0106, a Bliss excess [17] of 0.127 and a Bliss excess [18] of 0.0479. The Bliss excess (KYM-1 (Rhabdomyosarcoma) [19]) was -0.031, the Bliss excess [20] was 0.069 and the “combination Emax” value [21] was 0.504. The “combination Emax” value [22] was 0.343, the “combination Emax” value (CHL-1 (Melanoma) [23]) was 0.458 and the “combination Emax” value [24] was 0.931. For the same compound, the “combination Emax” value [25] was 0.137, the “combination Emax” value [26] was 0.371 and the “combination Emax” value [27] was 0.83. For the same compound, the “combination Emax” value [28] was 0.729, the “combination Emax” value [29] was 0.35 and the “combination Emax” value [30] was 0.554. The “combination Emax” value [31] was 0.497, the “combination Emax” value [32] was 0.469 and the “combination Emax” value [33] was 0.728. For the same compound, the “combination Emax” value [34] was 0.399, the “combination Emax” value [35] was 0.503 and the “combination Emax” value [36] was 0.355. For the same compound, the “combination Emax” value [37] was 0.628, the “combination Emax” value [38] was 0.599 and the “combination Emax” value (KYM-1 (Rhabdomyosarcoma) [39]) was 0.702. The “combination Emax” value [40] was 0.602.

`C[C@@H](Oc1cc(-c2cnn(C3CCNCC3)c2)cnc1N)c1c(Cl)ccc(F)c1Cl` [Crizotinib] + CC1=C(C(=CC=C1)Cl)NC(=O)C2=CN=C(S2)NC3=CC(=NC(=N3)C)N4CCN(CC4)CCO [Dasatinib] (first compound max 10 µM, 7x7, partner max 2 µM) gave a Bliss excess [1] of -0.0383, a Bliss excess [2] of -0.0328 and a Bliss excess (CHL-1 (Melanoma) [3]) of -0.0401. For the same compound, the Bliss excess [4] was -0.0958, the Bliss excess [5] was 0.0304 and the Bliss excess [6] was -0.0726. It also gave a Bliss excess [7] of -0.0197, a Bliss excess [8] of -0.049 and a Bliss excess [9] of -0.0416. It also gave a Bliss excess [10] of 0.0136, a Bliss excess [11] of 0.0034 and a Bliss excess [12] of 0.0183. The Bliss excess [13] was 0.101, the Bliss excess [14] was -0.0181 and the Bliss excess [15] was 0.0215. The Bliss excess [16] was -0.0068, the Bliss excess [17] was 0.1 and the Bliss excess [18] was 0.0436. The Bliss excess (KYM-1 (Rhabdomyosarcoma) [19]) was -0.0389, the Bliss excess [20] was 0.0591 and the “combination Emax” value [21] was 0.674. For the same compound, the “combination Emax” value [22] was 0.606, the “combination Emax” value (CHL-1 (Melanoma) [23]) was 0.349 and the “combination Emax” value [24] was 0.987. The “combination Emax” value [25] was 0.591, the “combination Emax” value [26] was 0.244 and the “combination Emax” value [27] was 0.971. For the same compound, the “combination Emax” value [28] was 0.41, the “combination Emax” value [29] was 0.303 and the “combination Emax” value [30] was 1. For the same compound, the “combination Emax” value [31] was 0.737, the “combination Emax” value [32] was 1 and the “combination Emax” value [33] was 0.962. For the same compound, the “combination Emax” value [34] was 0.639, the “combination Emax” value [35] was 0.758 and the “combination Emax” value [36] was 0.423. The “combination Emax” value [37] was 0.648, the “combination Emax” value [38] was 1 and the “combination Emax” value (KYM-1 (Rhabdomyosarcoma) [39]) was 0.917. For the same compound, the “combination Emax” value [40] was 0.983.

With `C[C@@H](Oc1cc(-c2cnn(C3CCNCC3)c2)cnc1N)c1c(Cl)ccc(F)c1Cl` [Crizotinib] + Cn1cnc2c(F)c(Nc3ccc(Br)cc3Cl)c(C(=O)NOCCO)cc21 [Selumetinib] (first compound max 10 µM, 7x7, partner max 10 µM) the Bliss excess [1] was -0.0249, the Bliss excess [2] was -0.0458 and the Bliss excess (CHL-1 (Melanoma) [3]) was -0.0464. For the same compound, the Bliss excess [4] was -0.0165, the Bliss excess [5] was 0.0569 and the Bliss excess [6] was -0.123. It also gave a Bliss excess [7] of -0.0543, a Bliss excess [8] of -0.0629 and a Bliss excess [9] of -0.0442. It also gave a Bliss excess [10] of 0.0176, a Bliss excess [11] of 0.0091 and a Bliss excess [12] of -0.0183. It also gave a Bliss excess [13] of -0.0103, a Bliss excess [14] of -0.0834 and a Bliss excess [15] of -0.0262. It also gave a Bliss excess [16] of -0.0364, a Bliss excess [17] of 0.0409 and a Bliss excess [18] of 0.031. For the same compound, the Bliss excess (KYM-1 (Rhabdomyosarcoma) [19]) was -0.0202, the Bliss excess [20] was -0.006 and the “combination Emax” value [21] was 0.724. For the same compound, the “combination Emax” value [22] was 0.713, the “combination Emax” value (CHL-1 (Melanoma) [23]) was 0.0893 and the “combination Emax” value [24] was 0.957. The “combination Emax” value [25] was 0.742, the “combination Emax” value [26] was 0.212 and the “combination Emax” value [27] was 0.906. For the same compound, the “combination Emax” value [28] was 0.452, the “combination Emax” value [29] was 0.377 and the “combination Emax” value [30] was 1. For the same compound, the “combination Emax” value [31] was 0.59, the “combination Emax” value [32] was 0.89 and the “combination Emax” value [33] was 0.916. For the same compound, the “combination Emax” value [34] was 0.625, the “combination Emax” value [35] was 0.39 and the “combination Emax” value [36] was 0.255. The “combination Emax” value [37] was 0.661, the “combination Emax” value [38] was 0.878 and the “combination Emax” value (KYM-1 (Rhabdomyosarcoma) [39]) was 0.92. For the same compound, the “combination Emax” value [40] was 0.983.
